Broadly, the MIC is the least concentration at which growth counts as inhibited.

Structures are written as SMILES. ≈ marks a conversion by molar mass, not a printed value. Where two headings read alike, the source gives them in different places.

Data on 4 molecules can be found in patent US12285407B2, “Bis-indolylmethane derivatives and uses thereof” (The University of The West Indies, priority 2018, dated 2025).

The subject of test [1] is Pseudomonas aeruginosa. Briefly: Rescue concentrations of SP-BIM that reactivate antibiotic. In kind it is cell-based. As to conditions: P. aeruginosa; for MIC: Pseudomonas aeruginosa, agent alone, read-out: MIC (single agent).
Another test has as its system MRSA. Nature of the test: Adjuvant broth microdilution (antibiotic MIC with SP-BIM at 50 μg/mL). In kind it is cell-based, Staphylococcus aureus. To be noted: antibiotic alone, Table 8 (series SP-BIMs 21-29). For orientation: Dilution methods test growth across graded concentrations, often in twofold steps.
The test system of a further test is Klebsiella pneumoniae. The description is as above. In kind it is cell-based. As to conditions: Klebsiella pneumonia; antibiotic alone, no SP-BIM.
The subject of a further test is Bacillus cereus. The test is described as above. In kind it is cell-based. To be noted: antibiotic alone, Table 9.
In another test the test system is Enterococcus faecalis. The description is as above. In kind it is cell-based. To be noted: antibiotic alone.
The test system of test [2] is Pseudomonas aeruginosa. The description is as above. In kind it is cell-based. To be noted: antibiotic alone.
The test system of the next test is Enterobacter cloacae. The description is as above. In kind it is cell-based. As to conditions: antibiotic alone.
The test system of a further test is Escherichia coli O157:H7. In kind it is cell-based. To be noted: antibiotic alone, no SP-BIM.
Another test deals with clinical strains of MRSA. Briefly: Kirby Bauer disc diffusion susceptibility profile. In kind it is cell-based, Staphylococcus aureus. To be noted: for Zone of clearance: 35° C., 24 hours, average n=3; for Interpretive standard (resistant/susceptible): zones vs EUCAST breakpoints (Table 30). For orientation: Agar diffusion results depend on both activity and mobility in agar.

Test [3] relates to Streptococcus pyogenes ATCC 19615. Nature of the test: Broth microdilution MIC of SP-BIMs. In kind it is cell-based. As to conditions: ATCC19615, SP-BIM alone, read-out: MIC Streptococcus pyogenes ATCC 19615.
For test [4], the system named is Bacillus cereus ATCC 14579. Nature of the test: Broth microdilution MIC of SP-BIMs. In kind it is cell-based. As to conditions: ATCC14579, SP-BIM alone, read-out: MIC Bacillus cereus ATCC 14579.
For test [5], the system named is Enterococcus faecium ATCC 19434. Briefly: Broth microdilution MIC of SP-BIMs. To be noted: ATCC19434, SP-BIM alone, read-out: MIC Enterococcus faecium ATCC 19434. In kind it is cell-based.
In test [6] the test system is Corynebacterium diphtheriae ATCC 27010. Briefly: Broth microdilution MIC of SP-BIMs. In kind it is cell-based. To be noted: ATCC27010, SP-BIM alone, read-out: MIC Corynebacterium diphtheriae ATCC 27010.
Test [7] relates to Staphylococcus aureus ATCC 12600. Nature of the test: Broth microdilution MIC of SP-BIMs. In kind it is cell-based. To be noted: ATCC12600, SP-BIM alone, read-out: MIC Staphylococcus aureus ATCC 12600.
The test system of test [8] is Klebsiella pneumoniae ATCC 49472. Briefly: Broth microdilution MIC of SP-BIMs. In kind it is cell-based. To be noted: ATCC49472, SP-BIM alone, read-out: MIC Klebisella pneumoniae ATCC 49472.
For test [9], the system named is Escherichia coli ATCC 35218. Briefly: Broth microdilution MIC of SP-BIMs. In kind it is cell-based. To be noted: ATCC35218, SP-BIM alone, read-out: MIC Escherichia coli ATCC 35218.
Test [10] deals with Salmonella typhimurium ATCC 14028. Nature of the test: Broth microdilution MIC of SP-BIMs. In kind it is cell-based. To be noted: Salmonella enterica, read-out: MIC Salmonella tvpkimurium ATCC 14028. The method, boiled down:
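S. typhimurium at ~10^6 CFU mL^−1 in cation-adjusted Mueller Hinton broth was exposed to twofold compound dilutions from 250 to 0.02 μg mL^−1 at 35° C. for 18 hours. Resazurin was then added, with 1 hour of shaking. MIC was the lowest concentration showing no blue-to-pink colour change.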

The test system of test [11] is Pseudomonas aeruginosa ATCC 27853. Briefly: Broth microdilution MIC of SP-BIMs. As to conditions: ATCC27853, SP-BIM alone, read-out: MIC Pseudomonas aeruginosa ATCC 27853. In kind it is cell-based.
The subject of test [12] is Candida albicans ATCC 22972. Nature of the test: Broth microdilution MIC of SP-BIMs. In kind it is cell-based. As to conditions: ATCC22972, SP-BIM alone, read-out: MIC Candida albicans ATCC 22972.
For test [13], the system named is panel of ATCC reference pathogen strains. Nature of the test: Broth microdilution MIC of SP-BIMs, panel summary in text. In kind it is cell-based. From the text: Reference microorganisms used in this study included: Bacillus cereus (American Type Culture Collection (ATCC) No. 14579), Streptococcus pyogenes (ATCC No. 19615), Staphylococcus aureus (ATCC No. 12600), Enterococcus faecium (ATCC No. 19434), Corynebacterium diphtheriae (ATCC No. 27010), Escherichia coli (ATCC No. 35218), Salmonella typhimurium (ATCC No. 14028), Pseudomonas aeruginosa (ATCC No. 27853), Klebsiella pneumoniae (ATCC No. 49472), and Candida albicans (ATCC No. 22972).
Prior to each experiment, cultures were streaked onto clean BHI agar plates and incubated at 35° C. for 24 hours. Colonies of the respective cultures were selected and inoculated in phosphate buffer saline (pH 7.5) to a 0.5 McFarland turbidity standard (equivalent to 10^8 CFU mL^−1). […]
To assess the antibiotic properties of the library of SP-BIMs, the broth microdilution assay was performed in 96-well microplates according to the Clinical and Laboratory Standards Institute 2014 Guidelines (CLSI 2014). […] The MIC was recorded as the well with the lowest concentration of test compound where no color change was observed.
The antimicrobial activity of the library of substituted [bis(indol-3yl)]methanes was assessed against a panel of ATCC reference pathogen strains of clinical relevance. […]

Another test concerns Streptococcus pneumoniae. Nature of the test: Adjuvant broth microdilution (antibiotic MIC with SP-BIM at 50 μg/mL). As to conditions: Streptococcus pneumoniae, Streptococcus pneumonia, SP-BIM at 50 μg mL^−1. In kind it is cell-based.
The mark [14] stands for this setting: read-out: MIC of Kanamvcin with SP-BIM.
Where [15] appears, read: read-out: MIC of Vancomvcin with SP-BIM.

For `Oc1ccc2c(C(c3ccc(Br)cc3)c3c[nH]c4cc(O)ccc34)c[nH]c2c1` [SP-BIM 23, 3,3′-((4-bromophenyl)methylene)bis(1H-indol-6-ol)], in the test on Pseudomonas aeruginosa [1], the “MIC of chloramphenicol in combination with 64 μg/mL SP-BIM 23” value was 4 µg/mL and the MIC was over 250 µg/mL.

With `O=C(N[C@H](CO)[C@H](O)c1ccc([N+](=O)[O-])cc1)C(Cl)Cl` [Chloramphenicol, chloramphenicol], the “MIC of antibiotic, No Compound” value in the test on MRSA is under 0.5 µg/mL; with Klebsiella pneumoniae it was over 250 µg/mL; in the test with Bacillus cereus, 4 µg/mL; with Enterococcus faecalis, 250 µg/mL; with Pseudomonas aeruginosa [2] it was 250 µg/mL; in the test with Enterobacter cloacae it was 16 µg/mL. Moreover, in the test on Escherichia coli O157:H7, the “MIC of antibiotic, No Compound” value came out at 8 µg/mL. Besides, the Zone of clearance in the test with clinical strains of MRSA (MRSA strain 1594) is given as 18.5 mm; with clinical strains of MRSA (MRSA strain 1621), 24.5 mm; in the test with clinical strains of MRSA (MRSA strain 5455) it was 22.0 mm; in the test with clinical strains of MRSA (MRSA strain 5872), 20.5 mm; with clinical strains of MRSA (MRSA strain 7153), 18.0 mm; in the test with clinical strains of MRSA (MRSA strain 7172), 19.5 mm. Further, the Zone of clearance is given as 16.5 mm in the test on clinical strains of MRSA (MRSA strain 7698) and 21.5 mm with clinical strains of MRSA (MRSA strain 10132). Also, the “Interpretive standard (resistant/susceptible)” value in the test on clinical strains of MRSA (MRSA strain 1594), in the test with clinical strains of MRSA (MRSA strain 1621), in the test with clinical strains of MRSA (MRSA strain 5455), with clinical strains of MRSA (MRSA strain 5872), in the test with clinical strains of MRSA (MRSA strain 7153) and in the test with clinical strains of MRSA (MRSA strain 7172) was “S” in each case. The “Interpretive standard (resistant/susceptible)” value in the test on clinical strains of MRSA (MRSA strain 7698) and in the test on clinical strains of MRSA (MRSA strain 10132) was “S” each time. In addition, the MIC in the test on Pseudomonas aeruginosa [1] turned out to be 250 µg/mL (≈ 774 µM).

`c1ccc(C(c2c[nH]c3ccccc23)c2c[nH]c3ccccc23)cc1` [SP-BIM 1, bis(indol-3-yl)-phenylmethane]: the MIC is 83 µg/mL in test [3]; 83 µg/mL in test [4]; 52 µg/mL in test [5]; 125 µg/mL in test [6]; over 250 µg/mL in test [7]; over 250 µg/mL in [8]. For the same molecule, the MIC in test [9] was over 250 µg/mL; in [10], 250 µg/mL; in test [11], 250 µg/mL; in test [12], 250 µg/mL; with Streptococcus pneumoniae (setting [14]), 125 µg/mL; with Streptococcus pneumoniae (setting [15]), 1 µg/mL. Also, the “antibacterial activity” value in test [13] was “displayed antibacterial activity, and only against Gram-positive bacteria”.

With `c1ccc2c(C(c3ncc[nH]3)c3c[nH]c4ccccc34)c[nH]c2c1` [SP-BIM 4, [bis(indol-3-yl)imidazol-2-yl]methane], the MIC was 104 µg/mL in [3]; 125 µg/mL in test [4]; 104 µg/mL in [5]; 166 µg/mL in [6]; 166 µg/mL in test [7]; over 250 µg/mL in [8]. The MIC in test [9] was over 250 µg/mL; in [10] it was 250 µg/mL; in test [11], 250 µg/mL; in test [12] it was 250 µg/mL; in the test with Streptococcus pneumoniae (setting [14]), 125 µg/mL; with Streptococcus pneumoniae (setting [15]), 1 µg/mL. Besides, the “antibacterial activity” value in [13] was “displayed antibacterial activity, and only against Gram-positive bacteria”.
